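Following 48 hours of exposure in 96-well plates, responses at five concentrations were used to interpolate endpoints linearly. TGI marks complete inhibition of growth.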
Columns and labels:
Assay in all cases: inhibition of tumour cell growth, NCI panel, 48 h
[1] = tested on: 786-0 renal
[2] = tested on: A498 renal
[3] = tested on: A549 NSCLC
[4] = tested on: ACHN renal
[5] = tested on: CCRF-CEM leukemia
[6] = tested on: COLO 205 colon
[7] = tested on: DLD-1 colon
[8] = tested on: DMS 114 small cell lung
[9] = tested on: DMS 273 small cell lung
[10] = tested on: EKVX NSCLC
[11] = tested on: HCC-2998 colon
[12] = tested on: HCT-116 colon
[13] = tested on: HCT-15 colon
[14] = tested on: HL-60(TB) leukemia
[15] = tested on: HOP-18 NSCLC
[16] = tested on: HOP-62 NSCLC
[17] = tested on: HOP-92 NSCLC
[18] = tested on: HT29 colon
[19] = tested on: IGROV1 ovarian
[20] = tested on: K-562 leukemia
[21] = tested on: KM12 colon
[22] = tested on: KM20L2 colon
[23] = tested on: LOX IMVI melanoma
[24] = tested on: M14 melanoma
[25] = tested on: M19-MEL melanoma
[26] = tested on: MALME-3M melanoma
[27] = tested on: MOLT-4 leukemia
[28] = tested on: NCI-H226 lung
[29] = tested on: NCI-H23 lung
[30] = tested on: NCI-H460 lung
[31] = tested on: NCI-H522 lung
[32] = tested on: OVCAR-3 ovarian
[33] = tested on: OVCAR-4 ovarian
[34] = tested on: OVCAR-5 ovarian
[35] = tested on: OVCAR-8 ovarian
[36] = tested on: RPMI-8226 leukemia
[37] = tested on: RXF 393 renal
[38] = tested on: RXF-631 renal
[39] = tested on: SF-268 CNS
[40] = tested on: SF-295 CNS
[41] = tested on: SF-539 CNS
[42] = tested on: SK-MEL-2 melanoma
[43] = tested on: SK-MEL-5 melanoma
[44] = tested on: SK-OV-3 ovarian
[45] = tested on: SN12C renal
[46] = tested on: SNB-75 CNS
[47] = tested on: SNB-78 CNS
[48] = tested on: SR leukemia
[49] = tested on: TK-10 renal
[50] = tested on: U251 CNS
[51] = tested on: UACC-257 melanoma
[52] = tested on: UACC-62 melanoma
[53] = tested on: UO-31 renal
[54] = tested on: XF 498 CNS
[55] = tested on: CAKI-1 renal
[56] = tested on: LXFL 529 NSCLC
[57] = tested on: SK-MEL-28 melanoma
[58] = tested on: SNB-19 CNS
[59] = tested on: SW-620 colon

O=c1[nH]c2cc([N+](=O)[O-])ccc2nc1/C(=N/Nc1ccccc1)C(O)c1ccc(Cl)cc1Cl (stereo not given)
TGI [1]: > 100 µM | TGI [2]: > 100 µM | TGI [3]: > 100 µM | TGI [4]: > 100 µM | TGI [5]: > 100 µM | TGI [6]: > 100 µM | TGI [7]: > 100 µM | TGI [8]: 44.7 µM | TGI [9]: > 100 µM | TGI [10]: > 100 µM | TGI [11]: > 100 µM | TGI [12]: > 100 µM | TGI [13]: > 100 µM | TGI [14]: > 100 µM | TGI [15]: > 100 µM | TGI [16]: > 100 µM | TGI [17]: > 100 µM | TGI [18]: > 100 µM | TGI [19]: > 100 µM | TGI [20]: > 100 µM | TGI [21]: > 100 µM | TGI [22]: > 100 µM | TGI [23]: > 100 µM | TGI [24]: > 100 µM | TGI [25]: > 100 µM | TGI [26]: > 100 µM | TGI [27]: > 100 µM | TGI [28]: > 100 µM | TGI [29]: > 100 µM | TGI [30]: > 100 µM | TGI [31]: > 100 µM | TGI [32]: > 100 µM | TGI [33]: > 100 µM | TGI [34]: > 100 µM | TGI [35]: > 100 µM | TGI [36]: > 100 µM | TGI [37]: > 100 µM | TGI [38]: > 100 µM | TGI [39]: > 100 µM | TGI [40]: > 100 µM | TGI [41]: > 100 µM | TGI [42]: > 100 µM | TGI [43]: > 100 µM | TGI [44]: > 100 µM | TGI [45]: > 100 µM | TGI [46]: > 100 µM | TGI [47]: > 100 µM | TGI [48]: 82.4 µM | TGI [49]: > 100 µM | TGI [50]: > 100 µM | TGI [51]: > 100 µM | TGI [52]: > 100 µM | TGI [53]: > 100 µM | TGI [54]: > 100 µM

CCOC(=O)[C@]12C3C=CC(C3)C1C(=O)C1OC12 (stereo not given in full)
TGI [1]: > 100 µM | TGI [2]: > 100 µM | TGI [3]: > 100 µM | TGI [4]: > 100 µM | TGI [55]: > 100 µM | TGI [5]: > 100 µM | TGI [6]: > 100 µM | TGI [7]: > 100 µM | TGI [8]: > 100 µM | TGI [9]: > 100 µM | TGI [10]: > 100 µM | TGI [11]: > 100 µM | TGI [12]: > 100 µM | TGI [13]: > 100 µM | TGI [14]: > 100 µM | TGI [15]: > 100 µM | TGI [16]: > 100 µM | TGI [17]: > 100 µM | TGI [18]: > 100 µM | TGI [19]: > 100 µM | TGI [20]: > 100 µM | TGI [21]: > 100 µM | TGI [23]: > 100 µM | TGI [56]: > 100 µM | TGI [25]: > 100 µM | TGI [26]: > 100 µM | TGI [27]: > 100 µM | TGI [28]: > 100 µM | TGI [29]: > 100 µM | TGI [30]: > 100 µM | TGI [31]: > 100 µM | TGI [32]: > 100 µM | TGI [33]: > 100 µM | TGI [34]: > 100 µM | TGI [35]: > 100 µM | TGI [36]: > 100 µM | TGI [38]: > 100 µM | TGI [39]: > 100 µM | TGI [40]: > 100 µM | TGI [41]: > 100 µM | TGI [42]: > 100 µM | TGI [57]: > 100 µM | TGI [43]: > 100 µM | TGI [44]: > 100 µM | TGI [45]: > 100 µM | TGI [58]: > 100 µM | TGI [46]: > 100 µM | TGI [47]: > 100 µM | TGI [59]: > 100 µM | TGI [49]: > 100 µM | TGI [50]: > 100 µM | TGI [51]: > 100 µM | TGI [52]: > 100 µM | TGI [53]: > 100 µM | TGI [54]: > 100 µM

Cc1cc(C)nc(NS(=O)(=O)c2ccc(NC(=O)c3cccc4c(Nc5ccc(S(=O)(=O)N=C(N)N)cc5)c5ccccc5nc34)cc2)n1
TGI [1]: 83.6 µM | TGI [2]: > 100 µM | TGI [3]: > 100 µM | TGI [4]: > 100 µM | TGI [55]: 55.2 µM | TGI [5]: > 100 µM | TGI [6]: > 100 µM | TGI [7]: 42.8 µM | TGI [9]: 80.6 µM | TGI [10]: 83.2 µM | TGI [11]: 22.6 µM | TGI [12]: > 100 µM | TGI [13]: > 100 µM | TGI [14]: 26.6 µM | TGI [15]: > 100 µM | TGI [16]: 94.3 µM | TGI [17]: 81.7 µM | TGI [18]: > 100 µM | TGI [19]: > 100 µM | TGI [20]: > 100 µM | TGI [21]: 26.9 µM | TGI [22]: > 100 µM | TGI [23]: > 100 µM | TGI [56]: 59.1 µM | TGI [24]: > 100 µM | TGI [25]: > 100 µM | TGI [26]: > 100 µM | TGI [27]: > 100 µM | TGI [29]: > 100 µM | TGI [30]: > 100 µM | TGI [31]: > 100 µM | TGI [32]: 35.5 µM | TGI [33]: 43.7 µM | TGI [34]: > 100 µM | TGI [35]: > 100 µM | TGI [36]: > 100 µM | TGI [37]: 52 µM | TGI [38]: > 100 µM | TGI [39]: > 100 µM | TGI [40]: > 100 µM | TGI [41]: > 100 µM | TGI [42]: > 100 µM | TGI [57]: 99.8 µM | TGI [43]: > 100 µM | TGI [44]: > 100 µM | TGI [45]: > 100 µM | TGI [58]: > 100 µM | TGI [46]: > 100 µM | TGI [47]: 99.2 µM | TGI [59]: 42.4 µM | TGI [49]: 92.3 µM | TGI [50]: > 100 µM | TGI [51]: 60 µM | TGI [52]: > 100 µM | TGI [53]: > 100 µM | TGI [54]: > 100 µM

Reference: PubChem BioAssay (NCI)
